Test results from article PMC3574189 (Journal of medicinal chemistry, 2013).

Tests used:
[1] = test system: PRV82A (PR with V82A mutation); assay: Fluorescence assay of HIV-1 protease inhibition; type: biochemical; settings: PRV82A vs PRWT
[2] = test system: PRI54M (PR with I54M mutation); assay: Fluorescence assay of HIV-1 protease inhibition; type: biochemical; settings: PRI54M vs PRWT
PRD30N = settings: mutant PRD30N; ref [22], [23]; cited from earlier work
PRI50V = settings: mutant PRI50V; ref [22], [23]; cited from earlier work

Row | Structure (SMILES) | increased Ki relative to PRWT [1] | increased Ki relative to PRWT [2] | Ki (PRD30N) | Ki (PRI50V)
1 | COc1ccc(S(=O)(=O)N(CC(C)C)C[C@@H](O)[C@H](Cc2ccccc2)NC(=O)O[C@H]2CO[C@H]3O[C@@H]4OCC[C@@H]4[C@H]32)cc1 [Compound 1, GRL-0519] | 6-7 fold | 6-7 fold |  | 
2 | CC(C)CN(C[C@@H](O)[C@H](Cc1ccccc1)NC(=O)O[C@H]1CO[C@H]2OCC[C@H]21)S(=O)(=O)c1ccc(N)cc1 [DRV, darunavir] |  |  | 6.6 nM | ≤ 18 nM
